Among the data in patent publication US6943183B2 (Pfizer Inc, priority 2000, dated 2005) are IC50 values, retold here.

The assay concerns the target T1, SF9 affinity purified rat FPT (Rattus norvegicus, UniProt Q02293+Q04631).
T1 construct: made in house; host or cells: Sf9 insect cells
The assay can be described thus: PFT (FPT) inhibitory activity assay, radiolabeled farnesyl pyrophosphate and biotinyl peptide, streptavidin beads. The format is biochemical. The settings on record: HEPES buffer pH 7.4, 30° C., 30 minutes; read-out: FTase IC50. The method in brief: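 Rat FPT expressed in SF9 cells was incubated 30 minutes at 30° C. with compound (in 10% DMSO), radiolabeled farnesyl pyrophosphate and biotinylated peptide. Buffer: HEPES pH 7.4, ZnCl2 20 μM, MgCl2 and DTT 5 mM each, 0.1% PEG 8000, 5 mM potassium phosphate (also run without phosphate). Product captured on streptavidin beads in magnesium acetate/H3PO4 stop buffer.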
Turning to `CC(=O)N(Cc1c(O[C@H](Cn2ccnc2)c2ccccc2)ccc2c1CCCC2=O)c1ccc(C)cc1` [Compound 144, N-[2-((S)-2-Imidazol-1-yl-1-phenyl-ethoxy)-5-oxo-5,6,7,8-tetrahydro-naphthalen-1-ylmethyl]-N-β-tolyl-acetamide], the IC50 came to 35 nM.

With `O=C1CCCc2c1ccc(O[C@H](Cn1ccnc1)c1ccccc1)c2CNc1ccc2[nH]ncc2c1` [Compound 145], the IC50 is 16 nM.

On to `O=C1CCCc2c1ccc(O[C@H](Cn1ccnc1)c1ccccc1)c2CN1CCN(c2ccccc2)CC1` [Compound 146, 6-((S)-2-Imidazol-1-yl-1-phenyl-ethoxy)-5-(4-phenyl-piperazin-1-ylmethyl)-3,4-dihydro-2H-napthalen-1-one], for which the IC50 turned out to be 34 nM.

Take `O=C1CCCc2c1ccc(O[C@H](Cn1ccnc1)c1ccccc1)c2CN1CCN(c2ccccn2)CC1` [Compound 147, 6-((S)-2-Imidazol-1-yl-1-phenyl-ethoxy)-5-(4-pyridin-2-yl-piperazin-1-ylmethyl)-3,4-dihydro-2H-napthalen-1-one]: the IC50 was 19 nM.

In the case of `O=C1CCCc2c1ccc(O[C@H](Cn1ccnc1)c1ccccc1)c2CNc1cccc2cccnc12` [Compound 148, 6-((S)-2-Imidazol-1-yl-1-phenyl-ethoxy)-5-(quinolin-8-ylaminomethyl)-3,4-dihydro-2H-napthalen-1-one], the IC50 worked out at 5.3 nM.

As to `N#Cc1ccccc1NCc1c(O[C@H](Cn2ccnc2)c2ccccc2)ccc2c1CCCC2=O` [Compound 149, 2-{[2-((S)-2-Imidazol-1-yl-1-phenyl-ethoxy)-5-oxo-5,6,7,8-tetrahydro-napthalen-1-ylmethyl]-amino}-benzonitrile], the IC50 came to 3 nM.

Turning to `O=C1CCCc2c1ccc(O[C@H](Cn1ccnc1)c1ccccc1)c2CNc1ccc(Br)cc1` [Compound 150, 5-[(4-Bromo-phenylamino)-methyl]-6-((S)-2-imidazol-1-yl-1-phenyl-ethoxy)-3,4-dihydro-2H-napthalen-1-one], the IC50 amounted to 16 nM.

For `O=C1CCCc2c1ccc(O[C@H](Cn1ccnc1)c1ccccc1)c2CNc1ccc(F)cc1` [Compound 151, 5-[(4-Fluoro-phenylamino)-methyl]-6-((S)-2-imidazol-1-yl-1-phenyl-ethoxy)-3,4-dihydro-2H-napthalen-1-one], the half-maximal inhibitory concentration (IC50) was determined as 19 nM.

Consider `O=C1CCCc2c1ccc(O[C@H](Cn1ccnc1)c1ccccc1)c2CNc1ccc2c(c1)OCCO2` [Compound 152, 5-[(2,3-Dihydro-benzo[1,4]dioxin-6-ylamino)-methyl]-6-((S)-2-imidazol-1-yl-1-phenyl-ethoxy)-3,4-dihydro-2H-napthalen-1-one], for which the IC50 was 5 nM.

Turning to `O=C1CCCc2c1ccc(O[C@H](Cn1ccnc1)c1ccccc1)c2CSCc1ccc(Cl)c(Cl)c1` [Compound 153, 5-(3,4-Dichloro-benzylsulfanylmethyl)-6-((1S)-2-imidazol-1-yl-1-phenyl-ethoxy)-3,4-dihydro-2H-naphthalen-1-one], the IC50 is 15 nM.

Take `COC(=O)c1ccccc1S(=O)(=O)Cc1c(O[C@H](Cn2ccnc2)c2ccccc2)ccc2c1CCCC2=O` [Compound 154, Methyl 2-{[(2-{[(1S)-2-(1H-Imidazol-1-yl)-1-phenylethyl]oxy}-5-oxo-5,6,7,8-tetrahydro-1-naphthalenyl)methyl]sulfonyl}benzoate]: the 50% inhibitory concentration (IC50) was determined as 2.6 nM.

For the compound `COC(=O)c1ccc(S(=O)(=O)Cc2c(O[C@H](Cn3ccnc3)c3ccccc3)ccc3c2CCCC3=O)cc1` [Compound 155, Methyl 4-{[(2-{[(1S)-2-(1H-Imidazol-1-yl)-1-phenylethyl]oxy}-5-oxo-5,6,7,8-tetrahydro-1-naphthalenyl)methyl]sulfonyl}benzoate], the IC50 came to 20 nM.

In the case of `COC(=O)c1cccc(S(=O)(=O)Cc2c(O[C@H](Cn3ccnc3)c3ccccc3)ccc3c2CCCC3=O)c1` [Compound 156], the IC50 is 5 nM.

As for `COC(=O)c1ccc(SCc2c(O[C@H](Cn3ccnc3)c3ccccc3)ccc3c2CCCC3=O)cc1` [Compound 157, Methyl 4-{[(2-{[(1S)-2-(1H-Imidazol-1-yl)-1-phenylethyl]oxy}-5-oxo-5,6,7,8-tetrahydro-1-naphthalenyl)methyl]sulfanyl}benzoate], the IC50 stood at 4 nM.

Turning to `COC(=O)c1cccc(SCc2c(O[C@H](Cn3ccnc3)c3ccccc3)ccc3c2CCCC3=O)c1` [Compound 158, Methyl 3-{[(2-{[(1S)-2-(1H-Imidazol-1-yl)-1-phenylethyl]oxy}-5-oxo-5,6,7,8-tetrahydro-1-naphthalenyl)methyl]sulfanyl}benzoate], the IC50 was 4 nM.

Regarding `O=C(O)c1ccccc1S(=O)(=O)Cc1c(O[C@H](Cn2ccnc2)c2ccccc2)ccc2c1CCCC2=O` [Compound 159, 2-{[(2-{[(1S)-2-(1H-Imidazol-1-yl)-1-phenylethyl]oxy}-5-oxo-5,6,7,8-tetrahydro-1-naphthalenyl)methyl]sulfonyl}benzoic Acid], the IC50 is 5.5 nM.

Take `O=C(O)c1ccc(S(=O)(=O)Cc2c(O[C@H](Cn3ccnc3)c3ccccc3)ccc3c2CCCC3=O)cc1` [Compound 160, 4-{[(2-{[(1S)-2-(1H-Imidazol-1-yl)-1-phenylethyl]oxy}-5-oxo-5,6,7,8-tetrahydro-1-naphthalenyl)methyl]sulfonyl}benzoic Acid]: the half-inhibitory concentration (IC50) turned out to be 10 nM.

For `O=C(O)c1cccc(S(=O)(=O)Cc2c(O[C@H](Cn3ccnc3)c3ccccc3)ccc3c2CCCC3=O)c1` [Compound 161, 3-{[(2-{[(1S)-2-(1H-Imidazol-1-yl)-1-phenylethyl]oxy}-5-oxo-5,6,7,8-tetrahydro-1-naphthalenyl)methyl]sulfonyl}benzoic Acid], the IC50 came to 5 nM.

For the compound `O=C(O)c1ccc(SCc2c(O[C@H](Cn3ccnc3)c3ccccc3)ccc3c2CCCC3=O)cc1` [Compound 162, 4-{[(2-{[(1S)-2-(1H-Imidazol-1-yl)-1-phenylethyl]oxy}-5-oxo-5,6,7,8-tetrahydro-1-naphthalenyl)methyl]sulfanyl}benzoic Acid], the IC50 was found to be 8 nM.

`O=C(O)c1cccc(SCc2c(O[C@H](Cn3ccnc3)c3ccccc3)ccc3c2CCCC3=O)c1` [Compound 163, 3-{[(2-{[(1S)-2-(1H-Imidazol-1-yl)-1-phenylethyl]oxy}-5-oxo-5,6,7,8-tetrahydro-1-naphthalenyl)methyl]sulfanyl}benzoic Acid]: the half-inhibitory concentration (IC50) worked out at 5 nM.

`CNC(=O)c1ccccc1S(=O)(=O)Cc1c(O[C@H](Cn2ccnc2)c2ccccc2)ccc2c1CCCC2=O` [Compound 164, 2-{[(2-{[(1S)-2-(1H-Imidazol-1-yl)-1-phenylethyl]oxy}-5-oxo-5,6,7,8-tetrahydro-1-naphthalenyl)methyl]sulfonyl)-N-methylbenzamide]: the half-inhibitory concentration (IC50) was found to be 5.3 nM.

Take `O=C(NCCO)c1ccccc1S(=O)(=O)Cc1c(O[C@H](Cn2ccnc2)c2ccccc2)ccc2c1CCCC2=O` [Compound 165, N-(2-Hydroxyethyl)-2-{[(2-{[(1S)-2-(1H-imidazol-1-yl)-1-phenylethyl]oxy}-5-oxo-5,6,7,8-tetrahydro-1-naphthalenyl)methyl]sulfonyl}benzamide]: the IC50 turned out to be 6.4 nM.

Consider `O=C(O)CCNC(=O)c1ccc(S(=O)(=O)Cc2c(O[C@H](Cn3ccnc3)c3ccccc3)ccc3c2CCCC3=O)cc1` [Compound 166, N-4-{[(2-{[(1S)-2-(1H-Imidazol-1-yl)-1-phenylethyl]oxy}-5-oxo-5,6,7,8-tetrahydro-1-naphthalenyl)methyl]sulfonyl}benzoyl-β-alanine], for which the IC50 stood at 30 nM.
